In ChEMBL document CHEMBL1201862, “PubChem BioAssay data set” (2004):
Blank lines part the entries; values can stand above or below the compound they belong to. Activity calls are given as the source filed them.

Legend:
Format in all cases: functional
[1] = biological target: T1, High affinity choline transporter 1 (Homo sapiens, UniProt Q9GZV3); assay: human choline transporter blockers, potency – cell-based, 5-point CRC, membrane potential dye, dose response (AID 504840)
T1 sequence (Q9GZV3 whole entry): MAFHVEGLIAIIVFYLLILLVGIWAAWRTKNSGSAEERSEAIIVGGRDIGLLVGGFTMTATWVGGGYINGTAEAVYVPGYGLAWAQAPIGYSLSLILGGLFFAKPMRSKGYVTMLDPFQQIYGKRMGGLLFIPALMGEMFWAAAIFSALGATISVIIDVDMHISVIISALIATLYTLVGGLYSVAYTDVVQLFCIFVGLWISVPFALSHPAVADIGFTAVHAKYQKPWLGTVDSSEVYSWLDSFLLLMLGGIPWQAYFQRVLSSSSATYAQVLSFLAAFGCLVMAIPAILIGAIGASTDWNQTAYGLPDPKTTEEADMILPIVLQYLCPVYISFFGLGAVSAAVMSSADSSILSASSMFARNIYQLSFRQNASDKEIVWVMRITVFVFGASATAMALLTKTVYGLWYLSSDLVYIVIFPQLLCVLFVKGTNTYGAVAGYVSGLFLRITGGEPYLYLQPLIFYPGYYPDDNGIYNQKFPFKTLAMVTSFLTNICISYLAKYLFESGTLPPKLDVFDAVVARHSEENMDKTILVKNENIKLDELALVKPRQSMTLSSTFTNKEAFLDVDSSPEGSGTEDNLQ

[2] = biological target: T1, High affinity choline transporter 1; assay: human choline transporter blockers, potency – cell-based, 10-point CRC, membrane potential dye, dose response (AID 588401);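 note: membrane potential dye fluorescence of choline-evoked depolarization via CHT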
Aurora kinase A = biological target: T2, Aurora kinase A (Homo sapiens, UniProt O14965);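 note: value from the Navigating the Kinome kinase panel profiling, panel entry STK6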
T2 sequence (O14965 whole entry): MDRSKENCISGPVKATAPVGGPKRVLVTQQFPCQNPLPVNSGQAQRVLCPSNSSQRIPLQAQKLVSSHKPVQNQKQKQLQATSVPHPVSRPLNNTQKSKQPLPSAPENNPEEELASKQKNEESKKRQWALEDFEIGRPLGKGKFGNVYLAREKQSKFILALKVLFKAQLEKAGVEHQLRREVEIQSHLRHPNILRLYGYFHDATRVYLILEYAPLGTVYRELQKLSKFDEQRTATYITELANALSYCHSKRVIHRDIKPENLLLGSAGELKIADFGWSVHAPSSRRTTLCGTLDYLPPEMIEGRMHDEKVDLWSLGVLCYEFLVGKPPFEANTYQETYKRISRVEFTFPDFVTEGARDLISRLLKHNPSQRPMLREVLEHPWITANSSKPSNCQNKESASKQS

[3] = biological target: Cell division cycle 7-related protein kinase (Homo sapiens, UniProt O00311);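 note: value obtained from a kinome-wide kinase panel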
Chain of Cell division cycle 7-related protein kinase (O00311 whole entry): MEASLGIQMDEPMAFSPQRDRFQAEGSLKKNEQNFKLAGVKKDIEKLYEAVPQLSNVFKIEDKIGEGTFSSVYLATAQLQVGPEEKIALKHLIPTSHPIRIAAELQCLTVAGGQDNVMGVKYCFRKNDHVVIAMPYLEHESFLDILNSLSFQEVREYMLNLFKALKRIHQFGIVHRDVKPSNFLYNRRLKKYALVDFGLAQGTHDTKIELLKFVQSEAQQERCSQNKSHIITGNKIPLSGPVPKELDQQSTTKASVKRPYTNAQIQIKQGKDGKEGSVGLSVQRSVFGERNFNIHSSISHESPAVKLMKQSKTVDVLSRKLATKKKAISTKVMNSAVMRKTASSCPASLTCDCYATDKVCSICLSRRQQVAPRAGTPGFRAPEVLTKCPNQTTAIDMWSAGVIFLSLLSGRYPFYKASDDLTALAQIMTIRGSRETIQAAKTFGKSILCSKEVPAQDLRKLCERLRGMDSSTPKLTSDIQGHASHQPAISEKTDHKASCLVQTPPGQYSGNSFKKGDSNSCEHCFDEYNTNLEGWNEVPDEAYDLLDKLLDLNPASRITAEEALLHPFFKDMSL

Aurora kinase B = Aurora kinase B (Homo sapiens, UniProt Q96GD4)
Chain of Aurora kinase B (Q96GD4 whole entry): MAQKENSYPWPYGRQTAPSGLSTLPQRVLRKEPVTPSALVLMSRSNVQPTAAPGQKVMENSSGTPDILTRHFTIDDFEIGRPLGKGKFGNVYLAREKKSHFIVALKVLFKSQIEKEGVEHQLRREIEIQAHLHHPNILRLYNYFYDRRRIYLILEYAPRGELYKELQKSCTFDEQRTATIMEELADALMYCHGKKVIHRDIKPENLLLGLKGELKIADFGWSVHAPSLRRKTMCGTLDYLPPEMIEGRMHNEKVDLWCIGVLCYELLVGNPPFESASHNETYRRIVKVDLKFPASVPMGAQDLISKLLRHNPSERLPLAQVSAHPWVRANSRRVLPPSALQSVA

Wee1-like protein kinase = Wee1-like protein kinase (Homo sapiens, UniProt P30291); assay: Navigating the Kinome. Panel member name: WEE1
Chain of Wee1-like protein kinase (P30291 whole entry): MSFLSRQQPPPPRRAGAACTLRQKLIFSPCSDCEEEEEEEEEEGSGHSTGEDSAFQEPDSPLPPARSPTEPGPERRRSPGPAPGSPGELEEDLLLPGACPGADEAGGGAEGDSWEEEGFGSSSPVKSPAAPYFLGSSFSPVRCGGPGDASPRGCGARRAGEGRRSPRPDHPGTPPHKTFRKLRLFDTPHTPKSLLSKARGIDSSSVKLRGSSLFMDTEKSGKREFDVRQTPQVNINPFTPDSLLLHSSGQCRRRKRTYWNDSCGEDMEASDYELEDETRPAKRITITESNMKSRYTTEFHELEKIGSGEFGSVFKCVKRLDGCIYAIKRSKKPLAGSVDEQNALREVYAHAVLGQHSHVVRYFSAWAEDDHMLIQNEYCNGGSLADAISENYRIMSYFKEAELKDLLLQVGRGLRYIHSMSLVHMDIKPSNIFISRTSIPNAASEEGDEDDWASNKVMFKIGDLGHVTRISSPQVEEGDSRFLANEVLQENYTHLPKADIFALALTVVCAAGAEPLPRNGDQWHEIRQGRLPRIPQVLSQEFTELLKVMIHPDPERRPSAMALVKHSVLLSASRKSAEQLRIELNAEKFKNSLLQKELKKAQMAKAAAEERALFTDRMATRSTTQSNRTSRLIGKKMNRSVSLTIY

[4] = biological target: ALK tyrosine kinase receptor (Homo sapiens, UniProt Q9UM73);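 note: ALK tested as one member of a kinase panel screen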
Chain of ALK tyrosine kinase receptor (Q9UM73 whole entry): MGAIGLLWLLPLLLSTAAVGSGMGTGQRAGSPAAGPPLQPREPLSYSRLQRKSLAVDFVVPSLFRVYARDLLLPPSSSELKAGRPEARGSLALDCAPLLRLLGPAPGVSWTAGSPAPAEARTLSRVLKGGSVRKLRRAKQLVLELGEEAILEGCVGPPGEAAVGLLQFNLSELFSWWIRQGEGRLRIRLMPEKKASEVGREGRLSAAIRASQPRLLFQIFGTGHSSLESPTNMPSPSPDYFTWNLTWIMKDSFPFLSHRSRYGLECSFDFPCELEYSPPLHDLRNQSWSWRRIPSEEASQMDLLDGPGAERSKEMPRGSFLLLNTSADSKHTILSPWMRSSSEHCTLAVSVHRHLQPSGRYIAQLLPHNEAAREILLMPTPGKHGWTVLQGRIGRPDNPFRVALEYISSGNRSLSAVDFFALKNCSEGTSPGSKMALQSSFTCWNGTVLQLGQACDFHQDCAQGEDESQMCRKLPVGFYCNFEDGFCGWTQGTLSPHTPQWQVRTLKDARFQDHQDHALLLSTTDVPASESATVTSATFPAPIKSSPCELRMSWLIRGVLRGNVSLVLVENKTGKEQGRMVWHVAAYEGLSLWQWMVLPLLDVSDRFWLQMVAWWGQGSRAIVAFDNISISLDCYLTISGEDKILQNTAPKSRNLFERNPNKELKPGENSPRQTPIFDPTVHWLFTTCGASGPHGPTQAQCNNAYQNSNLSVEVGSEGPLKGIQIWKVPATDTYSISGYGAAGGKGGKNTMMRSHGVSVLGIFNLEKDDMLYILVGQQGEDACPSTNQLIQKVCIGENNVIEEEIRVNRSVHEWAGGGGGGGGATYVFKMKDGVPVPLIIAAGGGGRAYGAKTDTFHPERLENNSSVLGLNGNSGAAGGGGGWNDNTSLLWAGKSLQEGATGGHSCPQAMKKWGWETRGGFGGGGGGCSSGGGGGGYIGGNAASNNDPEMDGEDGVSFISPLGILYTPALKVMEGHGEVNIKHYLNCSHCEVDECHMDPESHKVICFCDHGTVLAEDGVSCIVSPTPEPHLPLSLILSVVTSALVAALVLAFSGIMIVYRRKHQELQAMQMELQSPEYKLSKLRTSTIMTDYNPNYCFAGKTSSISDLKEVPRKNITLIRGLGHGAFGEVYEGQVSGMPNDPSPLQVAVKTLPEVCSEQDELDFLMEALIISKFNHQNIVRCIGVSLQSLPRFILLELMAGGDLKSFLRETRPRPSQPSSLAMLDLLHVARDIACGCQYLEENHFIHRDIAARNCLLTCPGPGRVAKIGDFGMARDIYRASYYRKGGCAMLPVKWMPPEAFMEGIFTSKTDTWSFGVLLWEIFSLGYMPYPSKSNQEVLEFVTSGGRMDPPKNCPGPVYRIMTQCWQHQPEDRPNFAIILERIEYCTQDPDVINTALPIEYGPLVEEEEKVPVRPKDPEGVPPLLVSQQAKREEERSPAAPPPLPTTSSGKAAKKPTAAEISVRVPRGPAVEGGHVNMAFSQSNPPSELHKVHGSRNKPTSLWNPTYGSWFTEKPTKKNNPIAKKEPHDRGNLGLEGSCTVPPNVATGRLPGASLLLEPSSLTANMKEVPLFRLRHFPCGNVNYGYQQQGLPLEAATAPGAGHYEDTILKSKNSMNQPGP

[5] = biological target: Neuropeptides B/W receptor type 1 (Homo sapiens, UniProt P48145); assay: human NPBW1 receptor blockade, IC50 – cell-based, fluorescence, dose response, set 6, late-stage follow-up (AID 588583)
Chain of Neuropeptides B/W receptor type 1 (P48145 whole entry): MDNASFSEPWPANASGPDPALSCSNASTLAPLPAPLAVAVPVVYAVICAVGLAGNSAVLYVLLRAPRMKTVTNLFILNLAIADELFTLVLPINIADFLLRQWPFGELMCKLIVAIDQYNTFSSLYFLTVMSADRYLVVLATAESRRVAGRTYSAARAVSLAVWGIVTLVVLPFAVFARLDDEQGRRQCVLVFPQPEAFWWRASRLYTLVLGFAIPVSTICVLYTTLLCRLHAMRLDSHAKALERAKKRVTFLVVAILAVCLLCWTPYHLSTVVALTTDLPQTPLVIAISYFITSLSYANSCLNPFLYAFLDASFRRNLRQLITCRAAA

[6] = biological target: Melanin-concentrating hormone receptor 1 (Homo sapiens, UniProt Q99705); assay: Late-stage fluorescence-based counterscreen for antagonists of the G-protein coupled receptor 7 (GPR7): cell-based dose response assay to identify antagonists of the melanin-concentrating hormone receptor 1 (MCHR1) Set 6.
Chain of Melanin-concentrating hormone receptor 1 (Q99705 whole entry): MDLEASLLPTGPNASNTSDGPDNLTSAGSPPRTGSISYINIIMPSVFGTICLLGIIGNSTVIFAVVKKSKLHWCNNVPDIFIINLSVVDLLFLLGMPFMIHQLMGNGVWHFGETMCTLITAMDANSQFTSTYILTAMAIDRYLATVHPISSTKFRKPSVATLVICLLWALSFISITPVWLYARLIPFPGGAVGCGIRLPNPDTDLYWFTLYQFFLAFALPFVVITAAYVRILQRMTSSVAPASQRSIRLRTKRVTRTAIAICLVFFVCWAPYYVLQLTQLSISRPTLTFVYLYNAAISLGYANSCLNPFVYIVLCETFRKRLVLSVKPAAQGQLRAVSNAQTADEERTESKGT

- IC50 [1]: 10000 nM (active)
- IC50 [2]: 4220 nM (active)
SMILES: CC(CN1CCN(C)CC1)OC(=O)c1ccccc1Cl (centres undefined)

- Ki (Aurora kinase A): 20 nM (active)
- Ki [3]: 0.126 nM (active)
- Ki (Aurora kinase B): 5.01 nM (active)
SMILES: COc1ccc(Nc2nccc(Nc3ccccc3C(=O)O)n2)cc1O

- Ki (Wee1-like protein kinase): 7.94 nM (active)
- Ki [4]: 15.8 nM (active)
SMILES: CCN1CCN(c2ccc(Nc3ncc(C(F)(F)F)c(Nc4ccc5[nH]ncc5c4)n3)cc2)CC1

- IC50 [5]: ~624 nM (active)
- IC50 [6]: ~624 nM (active)
SMILES: CCOc1ccccc1Cn1ncc(Cl)c(Oc2ccc(OC)cc2)c1=O
